Species on record: Rattus norvegicus
Test: DrugMatrix - Regimen: Daily Repeat
Assay type: toxicity, organism-based, Sprague-Dawley
Parameters: regimen Daily Repeat, gender Male, age 6-8 weeks
Conditions: in vivo, po, route oral GAVAGE, vehicle .5 % CMC; for ABSOLUTE BASOPHIL / ABSOLUTE EOSINOPHIL / ABSOLUTE LYMPHOCYTE / ABSOLUTE MONOCYTE / ABSOLUTE SEGMENTED NEUTROPHIL / BASOPHIL / EOSINOPHIL / ERYTHROCYTE COUNT / HEMATOCRIT / HEMOGLOBIN / LEUKOCYTE COUNT / LYMPHOCYTE / MEAN CORPUSCULAR HEMOGLOBIN / MEAN CORPUSCULAR HEMOGLOBIN CONCENTRATION / MEAN CORPUSCULAR VOLUME / MONOCYTE / NEUTROPHIL / NUCLEATED RED BLOOD CELLS / PLATELET COUNT: tissue Blood; for ALANINE AMINOTRANSFERASE / ALBUMIN / ALKALINE PHOSPHATASE / ASPARTATE AMINOTRANSFERASE / BLOOD UREA NITROGEN / CARBON DIOXIDE / CHLORIDE / CHOLESTEROL / CREATINE PHOSPHOKINASE / CREATININE / GLUCOSE / LACTATE DEHYDROGENASE / LIPASE / PHOSPHORUS / POTASSIUM / SODIUM / TOTAL BILIRUBIN / TOTAL PROTEIN / URIC ACID: tissue Plasma
[1] = 10 mg/kg, 120 h, dose level Low, time 5 day
[2] = 63 mg/kg, 72 h, dose level High, time 3 day
[3] = 63 mg/kg, 120 h, dose level High, time 5 day

## COc1c(C)c2c(c(O)c1C/C=C(\C)CCC(=O)OCCN1CCOCC1)C(=O)OC2 [MYCOPHENOLATE MOFETIL]
[1]
  ABSOLUTE BASOPHIL: 0 CELLS/uL
  ABSOLUTE EOSINOPHIL: 90 CELLS/uL
  ABSOLUTE LYMPHOCYTE: 13218.67 CELLS/uL
  ABSOLUTE MONOCYTE: 116.67 CELLS/uL
  ABSOLUTE SEGMENTED NEUTROPHIL: 1408 CELLS/uL
  BASOPHIL: 0%
  EOSINOPHIL: 0.67%
  ERYTHROCYTE COUNT: 5.48 x10E6/uL
  HEMATOCRIT: 34.27%
  HEMOGLOBIN: 13.7 G/DL
  LEUKOCYTE COUNT: 14.83 x10E3/uL
  LYMPHOCYTE: 89.33%
  MEAN CORPUSCULAR HEMOGLOBIN: 25 pg
  MEAN CORPUSCULAR HEMOGLOBIN CONCENTRATION: 40.03 G/DL
  MEAN CORPUSCULAR VOLUME: 62.53 fL
  MONOCYTE: 0.67%
  NEUTROPHIL: 9.33%
  NUCLEATED RED BLOOD CELLS: 0 /100WBC
  PLATELET COUNT: 1214 x10E3/uL
  ALANINE AMINOTRANSFERASE: 55.67 u/L
  ALBUMIN: 4.17 G/DL
  ALKALINE PHOSPHATASE: 364.33 u/L
  ASPARTATE AMINOTRANSFERASE: 99.67 u/L
  BLOOD UREA NITROGEN: 13.67 mg/dL
  CARBON DIOXIDE: 31.33 mmol/L
  CHLORIDE: 102.67 MEQ/L
  CHOLESTEROL: 61.67 mg/dL
  CREATINE PHOSPHOKINASE: 341.67 u/L
  CREATININE: 0.2 mg/dL
  GLUCOSE: 141 mg/dL
  LACTATE DEHYDROGENASE: 409.33 u/L
  LIPASE: 9.67 u/L
  PHOSPHORUS: 11.87 mg/dL
  POTASSIUM: 6.19 MEQ/L
  SODIUM: 144.83 MEQ/L
  TOTAL BILIRUBIN: 0.1 mg/dL
  TOTAL PROTEIN: 5.8 G/DL
  URIC ACID: 1.37 mg/dL
[2]
  ABSOLUTE BASOPHIL: 0 CELLS/uL
  ABSOLUTE EOSINOPHIL: 0 CELLS/uL
  ABSOLUTE LYMPHOCYTE: 8638 CELLS/uL
  ABSOLUTE MONOCYTE: 62 CELLS/uL
  ABSOLUTE SEGMENTED NEUTROPHIL: 300 CELLS/uL
  BASOPHIL: 0%
  EOSINOPHIL: 0%
  ERYTHROCYTE COUNT: 4.81 x10E6/uL
  HEMATOCRIT: 32.3%
  HEMOGLOBIN: 12.6 G/DL
  LEUKOCYTE COUNT: 9 x10E3/uL
  LYMPHOCYTE: 96%
  MEAN CORPUSCULAR HEMOGLOBIN: 26.2 pg
  MEAN CORPUSCULAR HEMOGLOBIN CONCENTRATION: 39 G/DL
  MEAN CORPUSCULAR VOLUME: 67.17 fL
  MONOCYTE: 0.67%
  NEUTROPHIL: 3.33%
  NUCLEATED RED BLOOD CELLS: 0.33 /100WBC
  PLATELET COUNT: 1141.33 x10E3/uL
  ALANINE AMINOTRANSFERASE: 32.67 u/L
  ALBUMIN: 4.13 G/DL
  ALKALINE PHOSPHATASE: 373.33 u/L
  ASPARTATE AMINOTRANSFERASE: 70.33 u/L
  BLOOD UREA NITROGEN: 14.33 mg/dL
  CARBON DIOXIDE: 28.67 mmol/L
  CHLORIDE: 102.33 MEQ/L
  CHOLESTEROL: 78.67 mg/dL
  CREATINE PHOSPHOKINASE: 199.67 u/L
  CREATININE: 0.16 mg/dL
  GLUCOSE: 161.67 mg/dL
  LACTATE DEHYDROGENASE: 310.33 u/L
  LIPASE: 9.67 u/L
  PHOSPHORUS: 11.63 mg/dL
  POTASSIUM: 6.25 MEQ/L
  SODIUM: 143.47 MEQ/L
  TOTAL BILIRUBIN: 0.13 mg/dL
  TOTAL PROTEIN: 5.6 G/DL
  URIC ACID: 1.1 mg/dL
[3]
  ABSOLUTE BASOPHIL: 0 CELLS/uL
  ABSOLUTE EOSINOPHIL: 45.67 CELLS/uL
  ABSOLUTE LYMPHOCYTE: 11569 CELLS/uL
  ABSOLUTE MONOCYTE: 81.67 CELLS/uL
  ABSOLUTE SEGMENTED NEUTROPHIL: 1037 CELLS/uL
  BASOPHIL: 0%
  EOSINOPHIL: 0.33%
  ERYTHROCYTE COUNT: 4.9 x10E6/uL
  HEMATOCRIT: 29.73%
  HEMOGLOBIN: 12.17 G/DL
  LEUKOCYTE COUNT: 12.73 x10E3/uL
  LYMPHOCYTE: 91%
  MEAN CORPUSCULAR HEMOGLOBIN: 24.83 pg
  MEAN CORPUSCULAR HEMOGLOBIN CONCENTRATION: 40.93 G/DL
  MEAN CORPUSCULAR VOLUME: 60.7 fL
  MONOCYTE: 0.67%
  NEUTROPHIL: 8%
  NUCLEATED RED BLOOD CELLS: 0 /100WBC
  PLATELET COUNT: 1576 x10E3/uL
  ALANINE AMINOTRANSFERASE: 40.33 u/L
  ALBUMIN: 4.33 G/DL
  ALKALINE PHOSPHATASE: 290 u/L
  ASPARTATE AMINOTRANSFERASE: 92.67 u/L
  BLOOD UREA NITROGEN: 17.33 mg/dL
  CARBON DIOXIDE: 27.33 mmol/L
  CHLORIDE: 101 MEQ/L
  CHOLESTEROL: 76.67 mg/dL
  CREATINE PHOSPHOKINASE: 208.67 u/L
  CREATININE: 0.15 mg/dL
  GLUCOSE: 189.33 mg/dL
  LACTATE DEHYDROGENASE: 215.33 u/L
  LIPASE: 7 u/L
  PHOSPHORUS: 12.23 mg/dL
  POTASSIUM: 5.8 MEQ/L
  SODIUM: 145 MEQ/L
  TOTAL BILIRUBIN: 0.2 mg/dL
  TOTAL PROTEIN: 6.07 G/DL
  URIC ACID: 1.83 mg/dL

Reference: ChEMBL document CHEMBL3885881, “DrugMatrix”
